Source: patent US10577341B1, “Beraprost-314d monohydrate crystals and methods for preparation thereof” (CHIROGATE INTERNATIONAL INC., priority 2018, dated 2020)

Assays:
[1] = Stability of anhydrous form versus monohydrate form of Beraprost-314d; assay and total impurities by HPLC after storage at 40° C.; type: physicochemical; conditions: for Assay / Total Impurities: 40° C./60% RH, HPLC
Experimental: The Beraprost-314d monohydrate is stable at room temperature. For example, the formation of dimer and/or unwanted esterification byproducts by the presence of hydrates can be avoided. […] The assay and total impurities of Beraprost-314d monohydrate and anhydrous Beraprost-314d were measured by HPLC after treatment at 40° C., as shown in Table 3.

[2] = Crystalline form transformation of Beraprost-314d monohydrate Form A to Form B, followed by XRPD after isothermal standing; type: physicochemical; conditions: for XRPD pattern after heating (crystalline form): 24 hours
Experimental: X-ray Powder Diffraction (XRPD) Analysis: The XRPD patterns were collected on a Bruker D2 PHASER diffractometer with fixed divergence slits and 1D LYNXEYE detector. The samples (ca. 100 mg) were placed flat on a sample holder. The prepared samples were analyzed over a 2θ range from 5° to 50° with step size of 0.02 degrees and step time of 1 second using CuKα radiation at a power of 10 mA and 30 kV The CuKβ radiation was removed by a divergent beam nickel filter,
The critical temperature (T*). of crystalline form transformation of Beraprost-314d monohydrate Form A and Form B was determined. Crystalline Beraprost-314d monohydrate Form A (0.10 g, from Example 3) was placed in glass vials, and heated to 25° C., 27° C., 29° C., 31° C., 33° C., and 35° C. and isothermal stood for 24 hours.

[3] = 3 days, listed as Beraprost-314d monohydrate, monohydrate

Row | Compound | Assay ([1]; 1 day) | Total Impurities ([1]; 1 day) | Assay ([1]; 2 days) | Assay ([1]; 3 days) | Total Impurities ([1]; 3 days) | Stability compared with the anhydrous form ([1]; 40° C. for 3 days) | Total Impurities ([1]; 2 days) | Assay [1, 3] | Total Impurities [1, 3] | Assay ([1]; 3 days, monohydrate) | Total Impurities ([1]; 3 days, monohydrate) | XRPD pattern after heating (crystalline form) ([2]; 25° C., 27° C. and 29° C.) | XRPD pattern after heating (crystalline form) ([2]; 31° C., 33° C. and 35° C.) | Critical temperature (T*) of crystalline form transformation from Form A to Form B ([2]; isothermal standing for 24 hours, XRPD)
1 | CC#CC[C@H](C)[C@H](O)/C=C/[C@@H]1[C@H]2c3cccc(CCCC(=O)O)c3O[C@H]2C[C@H]1O [Anhydrous Beraprost-314d, Beraprost-314d] | 99.30% | 0.84% | 99.01% | 98.95% | 1.19% | – | – | – | – | – | – | – | – | –
2 | CC#CC[C@H](C)[C@H](O)/C=C/[C@@H]1[C@H]2c3cccc(CCCC(=O)O)c3O[C@H]2C[C@H]1O.O [Beraprost-314d Monohydrate, Beraprost-314d monohydrate] | 99.89% | 0.17% | 99.77% | – | – | more stable than the anhydrous Beraprost-314d | 0.25% | no apparent decrease | 0.33% | 99.69% | 0.33% | – | – | –
3 | CC#CC[C@H](C)[C@H](O)/C=C/[C@@H]1[C@H]2c3cccc(CCCC(=O)O)c3O[C@H]2C[C@H]1O.O [Beraprost-314d monohydrate] | – | – | – | – | – | – | – | – | – | – | – | remain Form A without any Form B feature peaks | an intermediate state containing both Form A and Form B | about 30±5 °C
